Where two headings read alike, the source gives them in different places.
Assays:
[1] = biological target: T1, recombinant MaltOBP1 (Monochamus alternatus, UniProt A6YIT8); assay: Competitive ligand-binding assay (1-NPN displacement); settings: for binding affinity to MaltOBP1 (in words): fluorescence competitive binding; for Ki: Ki = [IC50]/(1 + [1-NPN]/K1-NPN), read-out: Ki (dissociation constant)
Experimental: (§1) Ligand-binding assays were performed on a HORIBA FluoroMax®-4 Fluorescence spectrophotometer (HORIBA Scientific, United States) with a 1 cm light path quartz cuvette and 5 nm slits for both excitation and emission. The purified MaltOBP1 protein, served in the 1 cm light path quartz cuvette, was titrated with 1 nM 1-N-phenyl naphtylamine (1-NPN, Sigma, Riedstr, Steinheim, Germany) solution in methanol. The fluorescence intensity at the maximum emission wavelength of about 337 nm was linearized using the Scatchard equation ([Sideris et al., 1992]), and then binding affinity for MaltOBP1/1-NPN was calculated.
To assess the binding affinities of ligands to MaltOBP1, a mixture of 1-NPN and MaltOBP1 protein was titrated with 1 μM of each ligand dissolved in methanol. IC50 was obtained by data linearization, and the dissociation constant (Ki) was calculated following the equation: Ki = [IC50]/(1 + [1-NPN]/K1–NPN), where [1-NPN] is the free concentration of 1-NPN and K1–NPN is the dissociation constant of the protein/1-NPN complex ([Campanacci et al., 2001]), which was calculated from the binding curve using GraphPad Prism 5.01 (GraphPad Software, Inc.).

[2] = biological target: T1, recombinant MaltOBP1; assay: 1-NPN fluorescence binding assay (Scatchard); settings: fluorescent probe titration, Scatchard linearization; read-out: dissociation constant of MaltOBP1/1-NPN
Experimental: as §1

[3] = competitive displacement of 1-NPN from MaltOBP1, ligands in methanol, read-out: IC50

T1 sequence (A6YIT8 entry or part of it): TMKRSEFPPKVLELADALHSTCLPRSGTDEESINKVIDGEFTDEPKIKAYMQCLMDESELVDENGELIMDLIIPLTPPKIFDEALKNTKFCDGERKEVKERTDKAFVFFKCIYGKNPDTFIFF

Molecule	binding affinity to MaltOBP1 (in words) [1]	Kd [2]	Ki [1]	IC50 [1, 3]	IC50 [1]
CC1=CCC2C(C1)C2(C)C (single isomer, unassigned; (+)) [(+)-3-carene]	no binding affinity	–	–	–	–
c1ccc(Nc2cccc3ccccc23)cc1 [1-NPN, 1-N-phenyl naphtylamine]	–	3.86 µM	–	–	–
C=C(C)[C@H]1CC=C(C)CC1 [(R)-(+)-limonene]	high binding affinity	–	12.8 µM	21.7 µM	–
CC1=CC(=O)[C@H]2C[C@@H]1C2(C)C [(−) -verbenone]	high binding affinity	–	37.4 µM	63.1 µM	–
C=C1CC/C=C(\C)CC[C@@H]2[C@@H]1CC2(C)C [(−)-trans-caryophyllene]	high binding affinity	–	–	–	7.01 µM
C=C1[C@H]2CC[C@H](C2)C1(C)C [comphene, Comphene]	no binding affinity	–	–	–	–
C=CC(=C)CCC=C(C)C [myrcene]	no binding affinity	–	–	–	–
C=C1CCC2CC1C2(C)C (stereo not drawn) [β- Pinene]	high binding affinity	–	–	–	39.3 µM
(+)-α-Pinene	high binding affinity	–	18.7 µM	31.5 µM	–

Reference: paper PMC7138900, “Characterization of MaltOBP1, a Minus-C Odorant-Binding Protein, From the Japanese Pine Sawyer Beetle, Monochamus alternatus Hope (Coleoptera: Cerambycidae)” (Frontiers in Physiology, 2020)
